Laboratory results: PubChem BioAssay (NCI)
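Dose response: 5 concentrations. Exposure: 48 h. Format: 96-well plates. Endpoint: linear interpolation; highest concentration if not reached. TGI marks complete inhibition of growth.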

Legend:
Assay in all cases: NCI-60 cell line screen, 48 h
K-562 leukemia = system: K-562 leukemia
NCI-H460 lung = system: NCI-H460 lung
MDA-N = system: MDA-N
T-47D breast = system: T-47D breast
OVCAR-3 ovarian = system: OVCAR-3 ovarian
KM12 colon = system: KM12 colon
HOP-62 NSCLC = system: HOP-62 NSCLC
DU-145 prostate = system: DU-145 prostate
NCI-H522 lung = system: NCI-H522 lung
HS 578T breast = system: HS 578T breast
MOLT-4 leukemia = system: MOLT-4 leukemia
CAKI-1 renal = system: CAKI-1 renal
HCT-116 colon = system: HCT-116 colon
TK-10 renal = system: TK-10 renal
M14 melanoma = system: M14 melanoma
EKVX NSCLC = system: EKVX NSCLC
SF-295 CNS = system: SF-295 CNS
MDA-MB-435 = system: MDA-MB-435
SNB-75 CNS = system: SNB-75 CNS
A498 renal = system: A498 renal
NCI-H226 lung = system: NCI-H226 lung
HT29 colon = system: HT29 colon
BT-549 breast = system: BT-549 breast
NCI/ADR-RES ovarian = system: NCI/ADR-RES ovarian
SF-268 CNS = system: SF-268 CNS
RXF 393 renal = system: RXF 393 renal
IGROV1 ovarian = system: IGROV1 ovarian
SK-OV-3 ovarian = system: SK-OV-3 ovarian
MCF7 breast = system: MCF7 breast
HCC-2998 colon = system: HCC-2998 colon
UO-31 renal = system: UO-31 renal
CCRF-CEM leukemia = system: CCRF-CEM leukemia
LOX IMVI melanoma = system: LOX IMVI melanoma
SK-MEL-5 melanoma = system: SK-MEL-5 melanoma
SNB-19 CNS = system: SNB-19 CNS
A549 NSCLC = system: A549 NSCLC
SW-620 colon = system: SW-620 colon
SK-MEL-2 melanoma = system: SK-MEL-2 melanoma
UACC-62 melanoma = system: UACC-62 melanoma
OVCAR-8 ovarian = system: OVCAR-8 ovarian
MALME-3M melanoma = system: MALME-3M melanoma
OVCAR-5 ovarian = system: OVCAR-5 ovarian
NCI-H23 lung = system: NCI-H23 lung
ACHN renal = system: ACHN renal
MDA-MB-231 breast = system: MDA-MB-231 breast
786-0 renal = system: 786-0 renal
U251 CNS = system: U251 CNS
SN12C renal = system: SN12C renal
UACC-257 melanoma = system: UACC-257 melanoma
COLO 205 colon = system: COLO 205 colon
OVCAR-4 ovarian = system: OVCAR-4 ovarian
SK-MEL-28 melanoma = system: SK-MEL-28 melanoma
HCT-15 colon = system: HCT-15 colon
HOP-92 NSCLC = system: HOP-92 NSCLC
PC-3 prostate = system: PC-3 prostate
SF-539 CNS = system: SF-539 CNS
RPMI-8226 leukemia = system: RPMI-8226 leukemia
HL-60(TB) leukemia = system: HL-60(TB) leukemia

Measured: TGI

COC(=O)c1sc(=S)sc1SCc1ccc(CSc2sc(=S)sc2C(=O)OC)cc1
> 100 µM: K-562 leukemia | NCI-H460 lung | MDA-N | T-47D breast | OVCAR-3 ovarian | KM12 colon | HOP-62 NSCLC | DU-145 prostate | NCI-H522 lung | HS 578T breast | MOLT-4 leukemia | CAKI-1 renal | HCT-116 colon | TK-10 renal | M14 melanoma | EKVX NSCLC | SF-295 CNS | MDA-MB-435 | SNB-75 CNS | A498 renal | NCI-H226 lung | HT29 colon | BT-549 breast | NCI/ADR-RES ovarian | SF-268 CNS | RXF 393 renal | IGROV1 ovarian | SK-OV-3 ovarian | MCF7 breast | HCC-2998 colon | UO-31 renal | CCRF-CEM leukemia | LOX IMVI melanoma | SK-MEL-5 melanoma | SNB-19 CNS | A549 NSCLC | SW-620 colon | SK-MEL-2 melanoma | UACC-62 melanoma | OVCAR-8 ovarian | MALME-3M melanoma | OVCAR-5 ovarian | NCI-H23 lung | ACHN renal | MDA-MB-231 breast | 786-0 renal | U251 CNS | SN12C renal | UACC-257 melanoma | COLO 205 colon | OVCAR-4 ovarian | SK-MEL-28 melanoma | HCT-15 colon | HOP-92 NSCLC | PC-3 prostate

O=[N+]([O-])c1ccc2c(c1)Cc1cc(N=Cc3ccc4c(c3)OCO4)ccc1-2
> 100 µM: K-562 leukemia | NCI-H460 lung | MDA-N | T-47D breast | OVCAR-3 ovarian | KM12 colon | HOP-62 NSCLC | DU-145 prostate | NCI-H522 lung | HS 578T breast | MOLT-4 leukemia | CAKI-1 renal | HCT-116 colon | TK-10 renal | M14 melanoma | EKVX NSCLC | SF-295 CNS | MDA-MB-435 | SNB-75 CNS | A498 renal | SF-539 CNS | NCI-H226 lung | HT29 colon | BT-549 breast | NCI/ADR-RES ovarian | SF-268 CNS | RXF 393 renal | IGROV1 ovarian | SK-OV-3 ovarian | MCF7 breast | UO-31 renal | CCRF-CEM leukemia | LOX IMVI melanoma | SK-MEL-5 melanoma | SNB-19 CNS | A549 NSCLC | SW-620 colon | SK-MEL-2 melanoma | UACC-62 melanoma | OVCAR-8 ovarian | MALME-3M melanoma | OVCAR-5 ovarian | NCI-H23 lung | ACHN renal | MDA-MB-231 breast | 786-0 renal | U251 CNS | RPMI-8226 leukemia | SN12C renal | UACC-257 melanoma | COLO 205 colon | OVCAR-4 ovarian | SK-MEL-28 melanoma | HL-60(TB) leukemia | HCT-15 colon | HOP-92 NSCLC | PC-3 prostate
